A short description of data set [1]: Stability with time in 0.1N aqueous sodium hydroxide (absorbancy at 420 nm, FIG. 1). In kind it is physicochemical. The following applies: 1 mM in 0.1N aqueous sodium hydroxide, 37° C. The protocol:
Also in FIG. 1, the changes of the absorbancy at 420 nm are shown with the lapse of time.
Hydroquinone, arbutin, or hydroquinone monocaprylate was dissolved at a concentration of 1 mM in a 0.1N aqueous sodium hydroxide solution. The changes in the color of the resultant solutions with the lapse of time at 37° C. were monitored by measuring the absorbancy at 420 nm.

A short description of data set [2]: Stability of neutral cream on storage at 37° C. (discoloration). In kind it is physicochemical. The note with it: for degree of discoloration: neutral cream of Example 8 (or arbutin replaced), 37° C. Here is the method:
These three samples were stored at a temperature of 37° C. for 1 month, 2 months, and 3 months.

Data set [3] deals with skin. The following applies: guinea pig, in vivo.
For data set [4], the system named is skin. The note with it: guinea pig, in vivo. The source holds these as a separate data set.
The test system of another data set is tyrosinase. Here is the method:
The depigmenting effects of arbutin and hydroquinone were evaluated by using the inhibition rate of tyrosinase, i.e. polyphenol oxidase for forming melanin. This evaluation method is generally accepted in the art.
The tyrosinase inhibition rate was determined by using DOPA as a substrate as follows:
Preparation of Sample Solution
Aqueous sample solutions having a concentration of hydroquinone or arbutin of 150, 300, or 600 mM were prepared.
Preparation of Substrate Solution
A substrate solution was prepared by dissolving 5 mg of DOPA in 10 ml of distilled water.
Preparation of Enzyme Solution
An enzyme solution was prepared by dissolving 10 mg of tyrosinase (2000 I.U./mg, Sigma Chemical Co.) in 10 ml of distilled water.
A 0.5 ml amount of the substrate solution and 0.9 ml of 1/15M phosphate buffer solution were added to 0.05 ml of the sample. The mixture was incubated at 25° C. for 5 minutes. Then, 0.05 ml of the enzyme solution, which was previously incubated at 25° C. for 5 minutes, was added to the above-incubated sample mixture. The resultant mixture was allowed to react for 1.5 minutes. The absorbancy of the resultant reaction mixture was measured at 475 nm. The tyrosinase inhibition rate was calculated from the following equation: [formula] wherein T: Absorbancy in the case of the inhibitor being added;
T': Absorbancy in the case of the inhibitor being added but the substrate not being added
C: Absorbancy in the case of the inhibitor not being added
C': Absorbancy in the case of neither the inhibitor nor the substrate being added

Structures are written as SMILES. Like-named read-outs stand apart in the source and are kept apart here.

As for `OC[C@H]1O[C@@H](Oc2ccc(O)cc2)[C@H](O)[C@@H](O)[C@@H]1O` [Arbutin, hydroquinone-β-D-glucoside], the “change in color of the solution with lapse of time” value (from here on “change in color of the solution”) in data set [1] is listed as “the change of appearance was not observed”. In addition, the “stability with the lapse of time (in words)” value in data set [2] (Table 4 conclusion) is given as “excellent”. Further, the degree of discoloration result in data set [2] (1 month) is recorded as “++”. Besides, the degree of discoloration entry in data set [2] (2 months) was “++”. Further, in data set [2] (3 months), the degree of discoloration result is recorded as “++”. Also, in the data set on skin [3], the “irritation (in words)” value is “no irritation” and the “number of the guinea pigs causing the irritation” value is reported as 0. In addition, in the data set on skin [4], the “Results (incidence, animals responding/tested)” value is on record as 0/1; the “Results (score, erythema and edema criteria)” value is reported as 0; the “contact sensitivity compared with other depigmenting agents” value is listed as “remarkably low compared with that of other depigmenting agents”; the “order of the contact sensitization potential” value (from here on “order”) is recorded as “Hydroquinone monocaprylate>Hydroquinone>>Arbutin”. Moreover, in the data set on tyrosinase (concentration 5 mM), the “Inhibition Rate (%)” value turned out to be 55.3%. Also, the “Inhibition Rate (%)” value in the data set on tyrosinase (concentration 10 mM) is 62.3%. Besides, in the data set with tyrosinase (concentration 20 mM), the “Inhibition Rate (%)” value is listed as 67.1%. In addition, the “inhibition effect compared with hydroquinone” value in the data set with tyrosinase (tyrosinase, Table 1 conclusion in words) is recorded as “superior to that of hydroquinone”.

Take `CCCCCCCC(=O)Oc1ccc(O)cc1` [Hydroquinone monocaprylate, hydroquinone monocaprylate]: the “change in color of the solution” value in data set [1] is recorded as “the stability was improved moderate”. Moreover, in data set [2] (1 month), the degree of discoloration entry was “+”. In addition, in data set [2] (2 months), the degree of discoloration entry is given as “+”. For the same molecule, the degree of discoloration result in data set [2] (3 months) was “-”. In the data set on skin [3], the “irritation (in words)” value is recorded as “strong irritation”. Besides, in the data set on skin [4], the “Results (incidence, animals responding/tested)” value was 5/5; the “Results (score, erythema and edema criteria)” value was 3.4; the “order” value is “Hydroquinone monocaprylate>Hydroquinone>>Arbutin”.

In the case of `Oc1ccc(O)cc1` [Hydroquinone, hydroquinone], the “change in color of the solution” value in data set [1] is “rapidly colored brown”. For the same molecule, the degree of discoloration result in data set [2] (1 month) is reported as “-”. For the same molecule, in the data set with skin [4], the “Results (incidence, animals responding/tested)” value was 5/5. Besides, in the data set on skin [4], the “Results (score, erythema and edema criteria)” value was determined as 2.6. The “order” value in the data set with skin [4] was “Hydroquinone monocaprylate>Hydroquinone>>Arbutin”. Also, the “Inhibition Rate (%)” value in the data set on tyrosinase (concentration 5 mM) is listed as 46.5%; in the data set with tyrosinase (concentration 10 mM), 51.6%; in the data set with tyrosinase (concentration 20 mM), 59.0%.
